ChEMBL document CHEMBL1158252, “Antimalarial activity: the search for marine-derived natural products with selective antimalarial activity” (J Nat Prod, 1996)
Converted amounts (≈) assume the structure as drawn.

What was measured:
[1] = tested on: KB; test: cells; assay type: ADME, cell-based; conditions: Homo sapiens
Description: Cytotoxicity against human KB cells

[2] = tested on: Plasmodium falciparum; test: microbe, parasite or virus in culture; assay type: functional, organism-based; conditions: D6
Description: Antiplasmodial activity against Plasmodium falciparum D6

[3] = tested on: Plasmodium falciparum; test: microbe, parasite or virus in culture; assay type: functional, organism-based; conditions: W2
Description: Antiplasmodial activity against Plasmodium falciparum W2

[4] = Selectivity index, ratio of IC50 for human KB cells to IC50 for Plasmodium falciparum W2; assay type: toxicity, cell-based; conditions: read-out: Ratio IC50
[5] = Selectivity index, ratio of IC50 for human KB cells to IC50 for Plasmodium falciparum D6; assay type: toxicity, cell-based; conditions: read-out: Ratio IC50

| Compound | IC50 [1] | IC50 [2] | IC50 [3] | selectivity ratio [4] | selectivity ratio [5] |
| --- | --- | --- | --- | --- | --- |
| COc1ccc(CO)cc1 | > 20 µg/mL | > 10 µg/mL | > 10 µg/mL |  |  |
| C=C(C)C1CC[C@@H]2[C@H]3CCC(C)[C@H]3[C@H]12 (stereo partly drawn) | > 20 µg/mL | > 10 µg/mL | > 10 µg/mL |  |  |
| C=C(C)[C@@H]1C=C2C(C)CC[C@@H]2C(C)CC1 (stereo partly drawn) | > 20 µg/mL | > 10 µg/mL | 8.46 µg/mL (≈ 41.4 µM) | > 2.3 |  |
| CC(C)=CCC[C@@H](C)[C@H]1CC[C@](C)(N=C=S)[C@H]2CCC(C)=C[C@H]12 | > 20 µg/mL | > 10 µg/mL | > 10 µg/mL |  |  |
| C[C@@H]1C[C@@H]2C[C@H](C)[C@H]3CC[C@](C)(N=C=O)[C@H]4CC[C@@H]([C@@H]2[C@H]34)[C@]1(C)C#N | 2 µg/mL (≈ 5.87 µM) | 0.0749 µg/mL (≈ 0.22 µM) | 0.0561 µg/mL (≈ 0.165 µM) | 36 | 27 |
| C=C(C)/C=C/[C@]12C[C@H](C)[C@H]3CC[C@](C)(C#N)[C@@H](CC[C@H]1C)[C@@H]32 | 19.1 µg/mL (≈ 64.2 µM) | 0.09 µg/mL (≈ 0.303 µM) | 0.0297 µg/mL (≈ 0.0998 µM) | 640 | 210 |
| C=C(C)C1[C@@H]2C(C)CC[C@@H]2[C@@]2(C)CC[C@@H]12 (stereo partly drawn) | > 20 µg/mL | > 10 µg/mL | > 10 µg/mL |  |  |
| CC(C)=C[C@@H]1C[C@H](C)[C@H]2CC[C@](C)(C#N)[C@H]3CC=C(C)[C@@H]1[C@H]23 | > 20 µg/mL | 0.302 µg/mL (≈ 1.02 µM) | 0.133 µg/mL (≈ 0.447 µM) | > 150 | > 66.2 |
| C=C(C)C[C@@H]1C[C@H](C)[C@H]2CC[C@](C)(C#N)[C@H]3CCC(=C)[C@@H]1[C@H]23 | > 20 µg/mL | 0.52 µg/mL (≈ 1.75 µM) | 0.242 µg/mL (≈ 0.813 µM) | > 82.6 | > 38.5 |
| C[C@H]1C[C@H]2CC(C)(C)C=C3CC[C@H]4[C@@H]([C@@H]1CC[C@]4(C)C#N)[C@@H]32 | 14.5 µg/mL (≈ 48.7 µM) | 0.0741 µg/mL (≈ 0.249 µM) | 0.0238 µg/mL (≈ 0.08 µM) | 610 | 200 |
| C[C@@H]1C[C@@H]2C[C@H](C)[C@H]3CC[C@](C)(C#N)[C@H]4CC[C@@H]([C@@H]2[C@H]34)[C@]1(C)N=C=O | 4.3 µg/mL (≈ 12.6 µM) | 0.0032 µg/mL (≈ 0.0094 µM) | 0.0025 µg/mL (≈ 0.00734 µM) | 1710 | 1340 |
| CC1=C[C@@H]2C[C@H](C)[C@H]3CC[C@](C)(C#N)[C@H]4CC[C@@H]([C@@H]2[C@H]34)[C@@H]1C | 18.2 µg/mL (≈ 61.2 µM) | 0.0625 µg/mL (≈ 0.21 µM) | 0.0195 µg/mL (≈ 0.0655 µM) | 930 | 290 |
| C[C@H]1C[C@H]2CC(C)(C)CC3=CC[C@H]4[C@@H]([C@@H]1CC[C@]4(C)C#N)[C@@H]32 | > 20 µg/mL | 0.0849 µg/mL (≈ 0.285 µM) | 0.0284 µg/mL (≈ 0.0955 µM) | > 700 | > 240 |
| C=C1CC[C@H]2[C@H]3[C@H](CC[C@]2(C)C#N)[C@@H](C)C[C@@H](CC(C)(C)N=C=S)[C@H]13 | > 20 µg/mL | 0.47 µg/mL (≈ 1.32 µM) | 0.109 µg/mL (≈ 0.306 µM) | > 183 | > 42.6 |
| C=C1CC[C@H]2[C@H]3[C@H](CC[C@]2(C)C#N)[C@@H](C)C[C@H](C=C(C)C)[C@H]13 | 3.2 µg/mL (≈ 10.8 µM) | 0.0141 µg/mL (≈ 0.0474 µM) | 0.0093 µg/mL (≈ 0.0313 µM) | 340 | 230 |
| C=C1CC[C@H]2[C@H]3[C@H](CC[C@]2(C)N=C=S)[C@@H](C)C[C@H](C=C(C)C)[C@]13O | 5.3 µg/mL (≈ 15.3 µM) | 0.797 µg/mL (≈ 2.31 µM) | 0.423 µg/mL (≈ 1.22 µM) | 12 | 6.6 |
| CC(C)=C[C@H]1C[C@H](C)[C@H]2CC[C@](C)(C#N)[C@H]3CCC(C)=C1[C@H]23 | 15.2 µg/mL (≈ 51.1 µM) | 0.0585 µg/mL (≈ 0.197 µM) | 0.0256 µg/mL (≈ 0.0861 µM) | 590 | 260 |
| C[C@@H]1C[C@@H]2C[C@H](C)[C@H]3CC[C@](C)(N=C=S)[C@H]4CC[C@@H]([C@@H]2[C@H]34)[C@]1(C)C#N | 1.6 µg/mL (≈ 4.49 µM) | 0.0451 µg/mL (≈ 0.126 µM) | 0.0285 µg/mL (≈ 0.0799 µM) | 56 | 35 |
| O=Cc1ccc(O)cc1 [4-HYDROXYBENZALDEHYDE] | > 20 µg/mL | 7.33 µg/mL (≈ 60 µM) | 5.56 µg/mL (≈ 45.5 µM) | > 3.6 | > 2.7 |
| C[C@@H]1CC[C@H]2[C@@H](C)C(=O)O[C@@H]3O[C@@]4(C)CC[C@@H]1[C@]32OO4 [ARTEMISININ] | > 20 µg/mL |  | 0.0021 µg/mL (≈ 0.00744 µM) |  |  |
| [C-]#[N+][C@]1(C)[C@H](C)C[C@@H]2C[C@H](C)[C@H]3CC[C@](C)([N+]#[C-])[C@H]4CC[C@H]1[C@@H]2[C@H]34 [DIISOCYANOADOCIANE] | 4.7 µg/mL (≈ 14.5 µM) |  | 0.0043 µg/mL (≈ 0.0133 µM) | 1100 | 1000 |
| OC(c1cc(C(F)(F)F)nc2c(C(F)(F)F)cccc12)C1CCCCN1 (stereo not drawn) [MEFLOQUINE] |  |  |  | 970 | 490 |
| C=C[C@H]1CN2CC[C@H]1C[C@H]2[C@H](O)c1ccnc2ccc(OC)cc12 [QUININE] | > 20 µg/mL |  | 0.0546 µg/mL (≈ 0.168 µM) | > 370 | > 1800 |
